Active and inactive are the calls of the source. No cut-off for these calls is given here.
Legend:
[1] = system: RKO; test: Upregulation of MDM2 gene expression in human RKO cells incubated for 24 hrs by qPCR analysis; assay type: functional, cell-based; details: dose 0.3125-2.5 µM, DDE = dose-dependent effect
[2] = Cmax in ICR mouse at 15 mg/kg, po measured upto 24 hrs by LC-MS/MS analysis; assay type: ADME, organism-based; parameters: time < 24 hrs, dose 15 mg/kg, route po; details: in vivo
[3] = system: SW480; test: cells; details: Homo sapiens, SW480, 96 h
[4] = system: RKO; test: Induction of apoptosis in human RKO cells assessed as viable cells at 6.25 uM measured after 48 hrs by Annexin V-FITC/PI staining based flow cytometry analysis (reference value: 93.54 %); assay type: functional; details: read-out: Activity
[5] = system: RKO; test: Induction of apoptosis in human RKO cells assessed as late apoptotic cells at 6.25 uM measured after 48 hrs by Annexin V-FITC/PI staining based flow cytometry analysis (reference value: 0.82 %); assay type: functional
[6] = system: RKO; test: Induction of apoptosis in human RKO cells assessed as viable cells at 12.5 uM measured after 48 hrs by Annexin V-FITC/PI staining based flow cytometry analysis (reference value: 93.54 %); assay type: functional; details: read-out: Activity
[7] = system: RKO; test: Downregulation of MDM4 expression in human RKO cells at 0.3125 to 2.5 uM incubated for 24 hrs by Western blot analysis; assay type: functional, cell-based; details: dose 0.3125-2.5 µM
[8] = system: HCT-116; test: Induction of PARP cleavage in human HCT-116 cells incubated for 24 hrs by Western blot analysis; assay type: functional, cell-based; details: dose 0.078125-2.5 µM, DDE = dose-dependent effect
[9] = system: RKO; test: Upregulation of PUMA gene expression in human RKO cells incubated for 24 hrs by qPCR analysis; assay type: functional, cell-based; details: dose 0.3125-2.5 µM, DDE = dose-dependent effect
[10] = target: E3 ubiquitin-protein ligase Mdm2 (Homo sapiens, UniProt Q00987); test: Displacement of 5-FAM labeled PDI peptide from MDM2 (1 to 118 residues) (unknown origin) expressed in Escherichia coli BL21 (DE3) assessed as inhibition constant incubated for 1.5 hrs by fluorescence polarization competition assay
[11] = system: RKO; test: Induction of cell cycle arrest in human RKO cells assessed as effect on cell cycle distribution incubated for 24 hrs by FACSCalibur flow cytometry analysis; assay type: functional, cell-based; details: dose 6.25-25 µM, DDE = dose-dependent effect
[12] = system: NCI-H460; test: Downregulation of MDM4 protein expression in human NCI-H460 cells at 2.5 uM measured after 24 hrs by Western blot analysis; assay type: functional, cell-based
[13] = system: RKO; test: Induction of apoptosis in human RKO cells assessed as early apoptotic cells at 6.25 uM measured after 48 hrs by Annexin V-FITC/PI staining based flow cytometry analysis (reference value: 3.56 %); assay type: functional
[14] = system: HCT-116; test: Upregulation of p53 protein expression in human HCT-116 cells at 2.5 uM measured after 24 hrs by Western blot analysis; assay type: functional, cell-based
[15] = system: RKO; test: Upregulation of p21 expression in human RKO cells incubated for 24 hrs by Western blot analysis; assay type: functional, cell-based; details: dose 0.3125-2.5 µM, DDE = dose-dependent effect
[16] = system: HeLa; test: cells; details: Homo sapiens, 96 h
[17] = system: RKO; test: Induction of apoptosis in human RKO cells assessed as viable cells at 25 uM measured after 48 hrs by Annexin V-FITC/PI staining based flow cytometry analysis (reference value: 93.54 %); assay type: functional; details: read-out: Activity
[18] = system: RKO; test: Induction of apoptosis in human RKO cells assessed as necrotic cells at 12.5 uM measured after 48 hrs by Annexin V-FITC/PI staining based flow cytometry analysis (reference value: 2.08 %); assay type: functional
[19] = system: U2OS; test: cells; details: Homo sapiens, 96 h
[20] = system: RKO; test: cells; details: Homo sapiens, 96 h
[21] = system: HCT-116; test: Upregulation of MDM2 protein expression in human HCT-116 cells at 2.5 uM measured after 24 hrs by Western blot analysis; assay type: functional, cell-based
[22] = system: HCT-116; test: Upregulation of p21 protein expression in human HCT-116 cells at 2.5 uM measured after 24 hrs by Western blot analysis; assay type: functional, cell-based
[23] = system: RKO; test: Upregulation of p21 gene expression in human RKO cells at 0.31 uM incubated for 24 hrs by qPCR analysis; assay type: functional, cell-based
[24] = system: RKO; test: Upregulation of MDM2 gene expression in human RKO cells at 0.31 uM incubated for 24 hrs by qPCR analysis; assay type: functional, cell-based
[25] = system: RKO; test: Induction of apoptosis in human RKO cells assessed as late apoptotic cells at 12.5 uM measured after 48 hrs by Annexin V-FITC/PI staining based flow cytometry analysis (reference value: 0.82 %); assay type: functional
[26] = Displacement of 5-FAM labeled PDI peptide from MDM4 C17S mutant (14 to 111 residues) (unknown origin) expressed in Escherichia coli BL21 (DE3) assessed as inhibition constant incubated for 1.5 hrs by fluorescence polarization competition assay; parameters: species or system Homo sapiens
[27] = system: RKO; test: Induction of PARP cleavage in human RKO cells at 0.3125 to 2.5 uM incubated for 24 hrs by Western blot analysis; assay type: functional, cell-based; details: dose 0.3125-2.5 µM
[28] = system: MCF7; test: Effect on MDM4 protein expression in human MCF7 cells at 2.5 uM measured after 24 hrs by Western blot analysis; assay type: functional, cell-based
[29] = AUC in ICR mouse at 15 mg/kg, po measured upto 24 hrs by LC-MS/MS analysis; assay type: ADME, organism-based; parameters: time < 24 hrs, dose 15 mg/kg, route po; details: in vivo
[30] = system: MCF7; test: Upregulation of p21 protein expression in human MCF7 cells at 2.5 uM measured after 24 hrs by Western blot analysis; assay type: functional, cell-based
[31] = system: MCF7; test: Upregulation of p53 protein expression in human MCF7 cells at 2.5 uM measured after 24 hrs by Western blot analysis; assay type: functional, cell-based
[32] = system: RKO; test: Antitumor activity against human RKO cells xenografted in BALB/c mouse assessed as tumor growth inhibition at 100 mg/kg, po bid administered via gavage for 21 consecutive days and measured on day 21 relative to control; assay type: functional; details: 504 h, time 21 day, read-out: TGI
[33] = system: U2OS; test: Effect on MDM4 protein expression in human U2OS cells at 2.5 uM measured after 24 hrs by Western blot analysis; assay type: functional, cell-based
[34] = system: RKO; test: Induction of apoptosis in human RKO cells assessed as early apoptotic cells at 25 uM measured after 48 hrs by Annexin V-FITC/PI staining based flow cytometry analysis (reference value: 3.56 %); assay type: functional
[35] = Oral bioavailability in ICR mouse at 15 mg/kg measured upto 24 hrs by LC-MS/MS analysis; assay type: ADME, organism-based; details: in vivo
[36] = system: U2OS; test: Upregulation of MDM2 protein expression in human U2OS cells at 2.5 uM measured after 24 hrs by Western blot analysis; assay type: functional, cell-based
[37] = system: RKO; test: Induction of apoptosis in human RKO cells assessed as necrotic cells at 6.25 uM measured after 48 hrs by Annexin V-FITC/PI staining based flow cytometry analysis (reference value: 2.08 %); assay type: functional
[38] = system: RKO; test: Induction of apoptosis in human RKO cells assessed as necrotic cells at 25 uM measured after 48 hrs by Annexin V-FITC/PI staining based flow cytometry analysis (reference value: 2.08 %); assay type: functional
[39] = system: MCF7; test: cells; details: Homo sapiens, MCF7, 96 h

Sequence of E3 ubiquitin-protein ligase Mdm2 (Q00987 whole entry, the tested form may be a part): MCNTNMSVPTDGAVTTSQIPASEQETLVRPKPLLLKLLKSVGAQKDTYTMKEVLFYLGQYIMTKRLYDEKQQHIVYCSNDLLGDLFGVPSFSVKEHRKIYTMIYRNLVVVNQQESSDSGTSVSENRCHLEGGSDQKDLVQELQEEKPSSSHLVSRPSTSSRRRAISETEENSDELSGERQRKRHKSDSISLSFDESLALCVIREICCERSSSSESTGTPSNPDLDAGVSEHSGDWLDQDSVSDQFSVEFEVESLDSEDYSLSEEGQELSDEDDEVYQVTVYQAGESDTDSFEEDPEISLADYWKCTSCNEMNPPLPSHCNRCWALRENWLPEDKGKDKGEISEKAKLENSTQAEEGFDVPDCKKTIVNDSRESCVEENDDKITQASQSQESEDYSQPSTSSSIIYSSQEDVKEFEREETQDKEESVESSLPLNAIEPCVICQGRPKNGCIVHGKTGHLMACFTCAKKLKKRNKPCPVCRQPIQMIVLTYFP

Question: Which Activity [1] does the source give for `COc1cc(C(=O)O)ccc1NC(=O)[C@@H]1N[C@@H](CC(C)(C)C)[C@](CNCc2ccncc2)(c2ccc(Cl)cc2F)[C@H]1c1cccc(Cl)c1F` here?
Answer: Its Activity is “Dde”.

Question: What about the Cmax [2] of the same compound?
Answer: The Cmax was 1080 ng/mL.

Question: What about the IC50 [3] of the same compound?
Answer: Its IC50 is 2820 nM.

Question: What about the viability at 6.25 µM [4] of the same compound?
Answer: Its viability at 6.25 µM is 74.5%.

Question: What about the Activity [5] of the same compound?
Answer: Its Activity is 3.15%.

Question: What about the viability at 12.5 µM [6] of the same compound?
Answer: Its viability at 12.5 µM is 85%.

Question: What about the Activity [7] of the same compound?
Answer: The Activity was “Active”.

Question: And the Activity [8]?
Answer: The Activity was “Dde”.

Question: What about the Activity [9] of the same compound?
Answer: Its Activity is “Dde”.

Question: What about the Ki [10] of the same compound?
Answer: The Ki was 1.1 nM.

Question: And the Activity [11]?
Answer: The Activity was “Dde”.

Question: And the Activity [12]?
Answer: Its Activity is “Active”.

Question: And the Activity [13]?
Answer: Its Activity is 6.28%.

Question: What about the Activity [14] of the same compound?
Answer: Its Activity is “Active”.

Question: And the Activity [15]?
Answer: Its Activity is “Dde”.

Question: What about the IC50 [16] of the same compound?
Answer: The IC50 was 7370 nM.

Question: What about the viability at 25 µM [17] of the same compound?
Answer: Its viability at 25 µM is 7.52%.

Question: What about the Activity [18] of the same compound?
Answer: Its Activity is 1.6%.

Question: What about the IC50 [19] of the same compound?
Answer: Its IC50 is 370 nM.

Question: What about the IC50 [20] of the same compound?
Answer: Its IC50 is 200 nM.

Question: And the Activity [21]?
Answer: The Activity was “Active”.

Question: And the Activity [22]?
Answer: The Activity was “Active”.

Question: What about the Activity [23] of the same compound?
Answer: The Activity was “Active”.

Question: And the Activity [24]?
Answer: The Activity was “Active”.

Question: What about the Activity [25] of the same compound?
Answer: The Activity was 3.81%.

Question: What about the Ki [26] of the same compound?
Answer: The Ki was 643 nM.

Question: And the Activity [27]?
Answer: Its Activity is “Active”.

Question: What about the Activity [28] of the same compound?
Answer: Its Activity is “Active”.

Question: And the AUC at 24 h [29]?
Answer: Its AUC at 24 h is 1990 ng·h/mL.

Question: And the Activity [30]?
Answer: The Activity was “Active”.

Question: And the Activity [31]?
Answer: Its Activity is “Active”.

Question: What about the inhibition in vivo at 100 mg/kg [32] of the same compound?
Answer: The inhibition in vivo at 100 mg/kg was 18%.

Question: What about the Activity [33] of the same compound?
Answer: The Activity was “Active”.

Question: And the Activity [34]?
Answer: Its Activity is 34.16%.

Question: What about the bioavailability [35] of the same compound?
Answer: The bioavailability was 13.5%.

Question: And the Activity [36]?
Answer: The Activity was “Active”.

Question: And the Activity [37]?
Answer: The Activity was 16.09%.

Question: And the Activity [38]?
Answer: Its Activity is 1.31%.

Question: And the IC50 [39]?
Answer: The IC50 was 520 nM.

From ChEMBL document CHEMBL5154862, “Structure-Based Discovery of MDM2/4 Dual Inhibitors that Exert Antitumor Activities against MDM4-Overexpressing Cancer Cells” (J Med Chem, 2022)
